Assay [1] deals with T1, PDGFR-β (NIH 3T3 cell lysate) (Homo sapiens, UniProt P09619).
T1 construct: host or cells: NIH 3T3
The experiment in a line: PDGFR bioassay, ELISA. Type of assay: biochemical. The conditions noted are these: read-out: bio PDGF IC50. In general terms: In an ELISA, binding on a coated surface is turned into a signal by an enzyme label.
Description: Corning 96-well Elisa plates • 2. 28D4C10 monoclonal anti-PDGFR antibody (SUGEN, Inc.). • 3. PBS. • 4. TBST Buffer. • 5. Blocking Buffer (same as for EGFR bioassay). • 6. PDGFR-β expressing NIH 3T3 cell lysate (SUGEN, Inc.). • 7. TBS Buffer. • 8. TBS+10% DMSO. • 9. ATP. • 10. MnCl2. • 11. Kinase buffer phosphorylation mix: for 10 ml, mix 250 μl 1M TRIS, 200 μl 5M NaCl, 100 μl 1M MnCl2 and 50 μl 100 mM Triton X-100 in enough dH2O to make 10 ml. • 12. NUNC 96-well V bottom polypropylene plates. • 13. EDTA. • 14. Rabbit polyclonal anti-phosphotyrosine serum (SUGEN, Inc.). • 15. Goat anti-rabbit IgG peroxidase conjugate (Biosource Cat. No. ALI0404). • 16. ABTS. • 17. Hydrogen peroxide, 30% solution. • 18. ABTS/H2O2. • 19. 0.2 M HCl. Procedure: • 1. Coat Corning 96 well ELISA plates with 0.5 μg 28D4C10 in 100 μl PBS per well, store overnight at 4° C. • 2. Remove unbound 28D4C10 from wells by inverting plate to remove liquid. • Wash 1×with dH2O. Pat the plate on a paper towel to remove excess liquid. • 3. Add 150 μl of Blocking Buffer to each well. Incubate for 30 min. at room temperature with shaking. • 4. Wash plate 3×with deionized water, then once with TBST. Pat plate on a paper towel to remove excess liquid and bubbles. • 5. Dilute lysate in HNTG (10 μg lysate/100 μl HNTG). • 6. Add 100 μl of diluted lysate to each well. Shake at room temperature for 60 min. • 7. Wash plates as described in Step 4. • 8. Add 80 μl working kinase buffer mix to ELISA plate containing captured PDGFR. • 9. […] Add 10 μl diluted test compound to ELISA plate. To control wells, add 10 μl TBS+10% DMSO. Incubate with shaking for 30 minutes at room temperature. • 11. Add 10 μl ATP directly to all wells except negative control well (final well volume should be approximately 100 μl with 20 μM ATP in each well.) Incubate 30 minutes with shaking. • 12. Stop reaction by adding 10 μl of EDTA solution to each well. • 13. Wash 4×with deionized water, twice with TBST. • 14. Add 100 μl anti-phosphotyrosine (1:3000 dilution in TBST) per well. Incubate with shaking for 30-45 min. at room temperature. • 15. Wash as in Step 4. • 16. […] Incubate with shaking for 30 min. at room temperature. • 17. Wash as in Step 4. • 18. Add 100 μl of ABTS/H2O2 solution to each well. • 19. Incubate 10 to 30 minutes with shaking. Remove any bubbles. • 20. If necessary stop reaction with the addition of 100 μl 0.2 M HCl per well. • 21.

A further assay addresses T2, GST-Flk1 (Mus musculus, UniProt P35918).
T2 construct: GST-Flk1cd purified from sf9 recombinant baculovirus transformation (SUGEN, Inc.); host or cells: Sf9 (baculovirus)
The experiment in a line: GST-FLK-1 bioassay (bio flkGST), ELISA. Type of assay: biochemical.

The next assay deals with T3, EGFR (A431 cell lysate) (Homo sapiens, UniProt P00533).
T3 construct: A431 cell lysate (SUGEN, Inc.); host or cells: A431
The assay can be described thus: EGFR bioassay, ELISA. Type of assay: biochemical. The conditions noted are these: read-out: bio EGF IC50.

Assay [2] concerns the target T4, HER-2 kinase (EGFr/HER-2 chimera/3T3-C7 cell line) (Homo sapiens, UniProt P04626).
T4 construct: fused on or other part: EGFR extracellular part, stimulated by EGF and captured by the anti-EGFR antibody SUMO1; P00533 (Epidermal growth factor receptor)
The experiment in a line: Cellular HER-2 kinase assay, whole-cell ELISA. Type of assay: cell-based. The conditions noted are these: read-out: Her2 Kinase IC50.
Description: This assay is used to measure HER-2 kinase activity in whole cells in an ELISA format.
Fetal Bovine Serum (FBS, GIBCO Catalog #16000-044), heat inactivated in a water bath for 30 min. at 56° C. • 3. […] PBS. • 9. […] Corning 96-well ELISA Plates. • 12. NUNC 96-well V bottom polypropylene plates. • 13. […] SUMO 1: monoclonal anti-EGFR antibody (SUGEN, Inc.). • 15. TBST Buffer. • 16. Blocking Buffer: 5% Carnation Instant Milk® in PBS. • 17. […] Suspend powder in 100 uL of 10 mM HCl. Add 100 uL 10 mM NaOH. Add 800 uL PBS and transfer to an Eppendorf tube, store at −20° C. until ready to use. • 18. […] EDTA. • 20. Na3VO4. […] Boil in microwave for one minute (solution becomes clear). • Cool to room temperature. Adjust pH to 10. Repeat heating/cooling cycle until pH remains at 10. • 21. 200 mM Na4P2O7. • 22. Rabbit polyclonal antiserum specific for phosphotyrosine (anti-Ptyr antibody, SUGEN, Inc.). • 23. Affinity purified antiserum, goat anti-rabbit IgG antibody, peroxidase conjugate (Biosource Cat #ALI0404). • 24. ABTS Solution. • 25. 30% Hydrogen peroxide solution. • 26. ABTS/H2O2. • 27. 0.2 M HCl. Procedure: • 1. Coat Corning 96 well ELISA plates with SUMO1 at 1.0 ug per well in PBS, 100 ul final volume/well. Store overnight at 4° C. • 2. On day of use, remove coating buffer and wash plate 3 times with dH2O and once with TBST buffer. All washes in this assay should be done in this manner, unless otherwise specified. • 3. Add 100 ul of Blocking Buffer to each well. Incubate plate, with shaking, for 30 min. at room temperature. Just prior to use, wash plate. • 4. Use EGFr/HER-2 chimera/3T3-C7 cell line for this assay. • 5. Choose dishes having 80-90% confluence. Collect cells by trypsinization and centrifuge at 1000 rpm at room temperature for 5 min. • 6. Resuspend cells in starve medium and count with trypan blue. Viability above 90% is required. Seed cells in starve medium at a density of 2,500 cells per well, 90 ul per well, in a 96 well microtiter plate. Incubate seeded cells overnight at 37° under 5% CO2. • 7. Start the assay two days after seeding. • 8. Test compounds are dissolved in 4% DMSO. Samples are then further diluted directly on plates with starve-DMEM. Typically, this dilution will be 1:10 or greater. […] Incubate at 37° C. for 10 min. • 13. Remove test compound, EGF, and DMEM. Wash cells once with PBS. • 14. Transfer HNTG* to cells, 100 ul per well. Place on ice for 5 minutes. • Meanwhile, remove blocking buffer from ELISA plate and wash. • 15. Scrape cells from plate with a micropipettor and homogenize cell material by repeatedly aspirating and dispensing the HNTG* lysis buffer. Transfer lysate to a coated, blocked, washed ELISA plate. Or, use a Costar transfer cartridge to transfer lysate to the plate. • 16. Incubate, with shaking, at room temperature for 1 hr. • 17. Remove lysate, wash. Transfer freshly diluted anti-Ptyr antibody (1:3000 in TBST) to ELISA plate, 100 ul per well. • 18. Incubate, with shaking, at room temperature, for 30 min. • 19. Remove anti-Ptyr antibody, wash. Transfer freshly diluted BIOSOURCE antibody to ELISA plate (1:8000 in TBST, 100 ul per well). • 20. Incubate, with shaking, at room temperature for 30 min. • 21. Remove BIOSOURCE antibody, wash. Transfer freshly prepared ABTS/H2O2 solution to ELISA plate, 100 ul per well. • 22. […] Remove any bubbles. • 23. Stop reaction with the addition of 100 ul of 0.2M HCl per well. • 24.

A further assay deals with T5, human cdk2/cyclin A (Homo sapiens, UniProt P24941).
T5 construct: host or cells: Sf9
The experiment in a line: CDK2/cyclin A scintillation proximity assay (cdk2spa). Type of assay: biochemical. The following applies: read-out: cdk2spa C50. (In a scintillation proximity assay essentially only radioactivity close to the scintillant gives light.)

T1 sequence (P09619 33-1106): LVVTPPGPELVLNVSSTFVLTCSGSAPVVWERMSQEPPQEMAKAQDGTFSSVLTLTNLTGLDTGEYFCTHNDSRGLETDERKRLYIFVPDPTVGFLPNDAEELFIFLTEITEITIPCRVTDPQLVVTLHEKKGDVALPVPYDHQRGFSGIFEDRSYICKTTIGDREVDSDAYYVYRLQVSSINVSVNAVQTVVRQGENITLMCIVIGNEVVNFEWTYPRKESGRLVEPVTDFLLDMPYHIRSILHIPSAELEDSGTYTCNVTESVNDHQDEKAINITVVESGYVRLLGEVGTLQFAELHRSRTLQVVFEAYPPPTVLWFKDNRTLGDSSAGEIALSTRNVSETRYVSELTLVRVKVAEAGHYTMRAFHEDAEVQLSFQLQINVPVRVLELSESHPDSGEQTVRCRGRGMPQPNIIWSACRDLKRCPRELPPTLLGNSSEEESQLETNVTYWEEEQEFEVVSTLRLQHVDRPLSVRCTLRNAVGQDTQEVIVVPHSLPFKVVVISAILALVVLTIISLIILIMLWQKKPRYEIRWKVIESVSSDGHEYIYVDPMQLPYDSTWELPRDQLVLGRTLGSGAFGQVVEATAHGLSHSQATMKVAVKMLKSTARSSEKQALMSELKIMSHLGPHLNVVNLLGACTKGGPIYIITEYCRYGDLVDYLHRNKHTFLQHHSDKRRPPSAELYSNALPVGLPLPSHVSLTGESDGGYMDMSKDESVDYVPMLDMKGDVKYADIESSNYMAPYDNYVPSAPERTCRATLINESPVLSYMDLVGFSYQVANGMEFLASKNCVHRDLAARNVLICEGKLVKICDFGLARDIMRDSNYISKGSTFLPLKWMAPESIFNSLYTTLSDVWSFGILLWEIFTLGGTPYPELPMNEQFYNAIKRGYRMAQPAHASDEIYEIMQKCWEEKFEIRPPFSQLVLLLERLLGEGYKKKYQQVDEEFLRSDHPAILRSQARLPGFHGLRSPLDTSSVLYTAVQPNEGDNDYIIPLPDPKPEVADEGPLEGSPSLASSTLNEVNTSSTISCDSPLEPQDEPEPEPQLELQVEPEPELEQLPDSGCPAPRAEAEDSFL
T4 sequence (P04626 720-987 limits assumed, change not shown): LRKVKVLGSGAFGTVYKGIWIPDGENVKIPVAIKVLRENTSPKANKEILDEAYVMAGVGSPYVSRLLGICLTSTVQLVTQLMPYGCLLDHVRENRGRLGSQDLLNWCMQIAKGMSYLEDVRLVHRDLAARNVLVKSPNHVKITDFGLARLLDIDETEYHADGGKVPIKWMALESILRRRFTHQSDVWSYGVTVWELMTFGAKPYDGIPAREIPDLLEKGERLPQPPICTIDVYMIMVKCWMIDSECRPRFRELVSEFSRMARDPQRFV
T2 sequence (P35918 784-1345 limits assumed): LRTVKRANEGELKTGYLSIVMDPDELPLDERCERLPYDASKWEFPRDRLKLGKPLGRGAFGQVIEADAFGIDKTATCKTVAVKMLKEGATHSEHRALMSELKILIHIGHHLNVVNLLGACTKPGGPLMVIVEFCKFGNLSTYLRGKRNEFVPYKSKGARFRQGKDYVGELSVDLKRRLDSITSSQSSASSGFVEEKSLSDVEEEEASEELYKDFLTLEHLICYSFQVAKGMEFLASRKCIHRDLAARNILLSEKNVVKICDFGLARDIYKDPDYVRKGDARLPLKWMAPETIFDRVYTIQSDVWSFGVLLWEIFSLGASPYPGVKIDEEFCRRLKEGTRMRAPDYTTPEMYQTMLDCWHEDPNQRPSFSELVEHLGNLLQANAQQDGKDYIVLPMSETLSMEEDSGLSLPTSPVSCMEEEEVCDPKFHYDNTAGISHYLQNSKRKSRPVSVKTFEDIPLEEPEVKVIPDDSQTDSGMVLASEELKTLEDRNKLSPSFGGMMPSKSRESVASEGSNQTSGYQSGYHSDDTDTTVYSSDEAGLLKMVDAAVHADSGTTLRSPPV
T3 sequence (P00533 25-1210): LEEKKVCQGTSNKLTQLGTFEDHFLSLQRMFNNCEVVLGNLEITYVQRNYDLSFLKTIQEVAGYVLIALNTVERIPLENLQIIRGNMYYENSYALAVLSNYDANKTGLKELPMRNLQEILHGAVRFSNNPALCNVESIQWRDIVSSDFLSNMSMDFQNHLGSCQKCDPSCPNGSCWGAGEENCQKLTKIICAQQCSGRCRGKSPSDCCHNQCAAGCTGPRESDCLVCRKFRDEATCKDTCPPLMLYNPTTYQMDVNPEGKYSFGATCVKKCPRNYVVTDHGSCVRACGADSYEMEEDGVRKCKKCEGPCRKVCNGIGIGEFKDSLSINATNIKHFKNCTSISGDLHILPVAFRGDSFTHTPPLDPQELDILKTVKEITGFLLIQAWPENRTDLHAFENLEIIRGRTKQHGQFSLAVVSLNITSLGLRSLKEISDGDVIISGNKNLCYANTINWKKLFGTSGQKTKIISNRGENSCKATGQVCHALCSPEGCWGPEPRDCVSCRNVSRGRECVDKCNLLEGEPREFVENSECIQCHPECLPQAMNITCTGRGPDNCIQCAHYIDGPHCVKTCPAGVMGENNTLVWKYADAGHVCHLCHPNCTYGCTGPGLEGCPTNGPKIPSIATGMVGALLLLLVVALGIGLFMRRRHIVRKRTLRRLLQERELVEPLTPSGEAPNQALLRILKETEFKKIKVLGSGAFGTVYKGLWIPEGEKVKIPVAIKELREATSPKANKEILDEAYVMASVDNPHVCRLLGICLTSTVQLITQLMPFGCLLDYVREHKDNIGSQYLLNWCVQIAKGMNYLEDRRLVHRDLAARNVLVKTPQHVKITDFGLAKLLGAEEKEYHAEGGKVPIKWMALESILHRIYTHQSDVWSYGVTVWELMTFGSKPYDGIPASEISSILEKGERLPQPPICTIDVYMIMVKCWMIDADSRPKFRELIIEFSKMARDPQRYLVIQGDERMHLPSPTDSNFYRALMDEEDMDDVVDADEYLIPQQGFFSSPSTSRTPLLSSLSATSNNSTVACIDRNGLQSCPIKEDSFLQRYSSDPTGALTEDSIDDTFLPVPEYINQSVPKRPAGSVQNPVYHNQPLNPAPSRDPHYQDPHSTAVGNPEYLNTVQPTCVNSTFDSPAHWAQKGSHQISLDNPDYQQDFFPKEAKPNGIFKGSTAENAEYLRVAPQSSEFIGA
Description for EGFR (A431 cell lysate): This assay is used to the in vitro kinase activity of FGF1-R in an ELISA assay.
Corning 96-well Elisa plates. • 2. SUMOL1 monoclonal anti-EGFR antibody (SUGEN, Inc.). • 3. PBS • 4. TBST Buffer • 5. Blocking Buffer: for 100 ml, mix 5.0 g Carnation Instant Non-fat Milk® with 100 ml of PBS. • 6. A431 cell lysate (SUGEN, Inc.). • 7. TBS Buffer: • 8.
bring to 1 liter total volume with dH2O. • 9. […] This reagent should be made up immediately prior to use and kept on ice. • 10. 1.0 mM MnCl2. • 11. […] Prepare just prior to use, keep on ice. • 12. NUNC 96-well V bottom polypropylene plates. • 13. EDTA. • 14. Rabbit polyclonal anti-phosphotyrosine serum (SUGEN, Inc.). • 15. Goat anti-rabbit IgG peroxidase conjugate (Biosource Cat. No. ALI0404). • 16. ABTS. • 17. 30% Hydrogen peroxide. • 18. ABTS/H2O2 • 19. 0.2 M HCl. Procedure: • 1. Coat Corning 96 well ELISA plates with 0.5 μg SUMO1 in 100 μl PBS per well, store overnight at 4° C. • 2. Remove unbound SUMO1 from wells by inverting plate to remove liquid. Wash 1×with dH2O. Pat the plate on a paper towel to remove excess liquid. • 3. Add 150 μl of Blocking Buffer to each well. Incubate, with shaking, for 30 min. at room temperature. • 4. Wash plate 3×with deionized water, then once with TBST. Pat plate on a paper towel to remove excess liquid and bubbles. • 5. Dilute lysate in PBS (7 μg lysate/100 μl PBS). • 6. Add 100 μl of diluted lysate to each well. Shake at room temperature for 1 hr. • 7. Wash plates as in 4, above. • 8. Add 120 μl TBS to ELISA plate containing captured EGFR. • 9. […] Add 13.5 μl diluted test compound to ELISA plate. To control wells, add 13.5 μl TBS in 10% DMSO. • 11. Incubate, with shaking, for 30 minutes at room temperature. • 12. Add 15 μl phosphorylation mix to all wells except negative control well. Final well volume should be approximately 150 μl with 3 μM ATP/5 mM MnCl2 final concentration in each well. Incubate with shaking for 5 minutes. • 13. Stop reaction by adding 16.5 μl of EDTA solution while shaking. Shake for additional 1 min. • 14. Wash 4×with deionized water, 2×with TBST. • 15. Add 100 μl anti-phosphotyrosine (1:3000 dilution in TBST) per well. Incubate, with shaking, for 30-45 min. at room temperature. • 16. Wash as in 4, above. • 17. […] Incubate with shaking for 30 min. at room temperature. • 18. Wash as in 4, above. • 19. Add 100 μl of ABTS/H2O2 solution to each well. • 20. Incubate 5 to 10 minutes with shaking. Remove any bubbles. • 21. If necessary, stop reaction by adding 100 μl 0.2 M HCl per well. • 22.
Description for GST-Flk1: This assay analyzes the tyrosine kinase activity of GST-Flk1 on poly(glu,tyr) peptides.
• 1. […] Preparation of poly(glu,tyr)(pEY) coated assay plates: Coat 2 ug/well of poly(glu,tyr)(pEY) in 100 ul PBS, hold at room temperature for 2 hours or at 4° C. overnight. Cover plates well to prevent evaporation. • 4. […] When all reagents have dissolved, adjust the pH to 7.2 with HCl. Bring total volume to 1 L with dH2O. • 5. PBST Buffer: to 1 L of PBS Buffer, add 1.0 ml Tween-20. • 6. […] Adjust pH to 7.2 with HCl. Add 10 g BSA, stir to dissolve. Bring total volume to 1 L with dH2O. Filter to remove particulate matter. • 7. […] Adjust total volume to 1 L with PBS buffer, filter to remove particulate matter. • 8. 50 mM Hepes pH 7.5. • 9. GST-Flk1cd purified from sf9 recombinant baculovirus transformation (SUGEN, Inc.). • 10. 4% DMSO in dH2O. • 11. 10 mM ATP in dH2O. • 12. 40 mM MnCl2 • 13. […] Add 10 N NaOH until EDTA dissolves. Adjust pH to 8.0. Adjust total volume to 100 ml with dH2O. • 16. […] Anti-phosphotyrosine monoclonal antibody conjugated to horseradish peroxidase (PY99 HRP, Santa Cruz Biotech). • 18. 2,2′-Azinobis(3-ethylbenzthiazoline-6-sulfonic acid (ABTS, Moss, Cat. No. ABST). • 19. 10% SDS. Procedure: • 1. Coat Corning 96-well ELISA plates with 2 μg of polyEY peptide in sterile PBS as described in step 3 of Materials and Reagents. • 2. Remove unbound liquid from wells by inverting plate. Wash once with TBST. Pat the plate on a paper towel to remove excess liquid. • 3. Add 100 μl of 1% BSA in PBS to each well. Incubate, with shaking, for 1 hr. at room temperature. • 4. Repeat step 2. • 5. Soak wells with 50 mM HEPES (pH 7.5) (150 μl/well). • 6. Dilute test compound with dH2O/4% DMSO to 4 times the desired final assay concentration in 96-well polypropylene plates. • 7. Add 25 μl diluted test compound to ELISA plate. In control wells, place 25 μl of dH2O/4% DMSO. • 8. […] Add 25 μl 0.5M EDTA to negative control wells. • 10. Dilute GST-Flk1 to 0.005 μg (5 ng)/well with KDB. • 11. Add 50 μl of diluted enzyme to each well. • 12. Incubate, with shaking, for 15 minutes at room temperature. • 13. […] Wash 3×with TBST and pat plate on paper towel to remove excess liquid. • 15. […] Incubate, with shaking, for 90 min. at room temperature. • 16. Wash as in step 14. • 17. Add 100 μl of room temperature ABTS solution to each well. • 18. […] Remove any bubbles. • 19. Stop reaction by adding 20 μl of 10% SDS to each well. • 20.
Description for human cdk2/cyclin A: Amersham Redivue [γ^33P] […] Amersham streptavidin coated polyvinyltoluene SPA beads (Amersham catalog #RPNQ0007). The beads should be reconstituted in PBS without magnesium or calcium, at 20 mg/ml. • 4. Activated cdk2/cyclin A enzyme complex purified from Sf9 cells (SUGEN, Inc.). • 5. Biotinylated peptide substrate (Debtide). […] The ultimate concentration per well will be 0.5 μM “cold” ATP, 0.1 μg Debtide and 0.2 μCi γ^33P ATP. • 7. […] 10 mM ATP in dH2O. • 9. 1M Tris, pH adjusted to 7.4 with HCl. • 10. 1M MgCl2. • 11. 1M DTT. • 12. […] 0.5M EDTA. • 14. […] Procedure: • 1. Prepare solutions of test compounds at 5×the desired final concentration in 5% DMSO. Add 10 ul to each well. For negative controls, use 10 ul 5% DMSO alone in wells. • 2. […] Add 20 ul enzyme to each well. • 4. Add 10 μL of 0.5 M EDTA to the negative control wells. • 5. To start kinase reaction, add 20 μL of peptide/ATP mixture to each well. • Incubate for 1 hr. without shaking. • 6. Add 200 μl stop solution to each well. • 7. Hold at least 10 min. • 8. […] Count plate using Trilux or similar reader.

On to `Cc1cc(C(=O)NCCCN2CCCC2)[nH]c1/C=C1\C(=O)Nc2ccc(Br)cc21` [Example 6, 5-(5-Bromo-2-oxo-1,2-dihydroindol-3-ylidenemethyl)-4-methyl-1H-pyrrole-2-carboxylic Acid (3-pyrrolidin-1-yl-propyl)amide], for which the IC50 in assay [1] was above 100 µM.
On to `CCN(CC)CCCNC(=O)c1[nH]c(/C=C2\C(=O)Nc3ccc(OC)cc32)cc1C` [Example 15, 5-(5-Methoxy-2-oxo-1,2-dihydroindol-3-ylidenemethyl)-3-methyl-1H-pyrrole-2-carboxylic Acid (3-diethylamino-propyl)amide], for which the results for the IC50 (on GST-Flk1; in assay [1]; on EGFR (A431 cell lysate)) were above 20 µM, above 100 µM and above 100 µM, respectively.
`CCN(CC)CCCNC(=O)c1[nH]c(/C=C2\C(=O)Nc3cc(OC)ccc32)cc1C` [Example 16, 5-(6-Methoxy-2-oxo-1,2-dihydroindol-3-ylidenemethyl)-3-methyl-1H-pyrrole-2-carboxylic Acid (3-diethylamino-propyl)amide]: the results for the IC50 on GST-Flk1 and on EGFR (A431 cell lysate) were above 20 µM and above 100 µM, respectively.
For `Cc1c(C(=O)NCCCN2CCOCC2)[nH]c(/C=C2\C(=O)Nc3ccc(Br)cc32)c1C(=O)c1ccccc1` [Example 22, 4-Benzoyl-5-(5-bromo-2-oxo-1,2-dihydroindol-3-ylidenemethyl)-3-methyl-1H-pyrrole-2-carboxylic Acid (3-morpholin-4-ylpropyl)amide], the IC50 was above 20 µM against GST-Flk1, above 100 µM in assay [1] and above 100 µM on EGFR (A431 cell lysate).
In the case of `Cc1c(C(=O)NCCCN2CCCC2)[nH]c(/C=C2\C(=O)Nc3ccc(Br)cc32)c1C(=O)c1ccccc1` [Example 24, 4-Benzoyl-5-(5-bromo-2-oxo-1,2-dihydroindol-3-ylidenemethyl)-3-methyl-1H-pyrrole-2-carboxylic Acid (3-pyrrolidin-1-ylpropyl)amide], the IC50 in assay [1] is above 100 µM.
On the same count and under the same terms, then `Cc1c(C(=O)NCCCN2CCCC2)[nH]c(/C=C2\C(=O)Nc3cc(-c4ccccc4)ccc32)c1C(=O)c1ccccc1` [Example 25, 4-Benzoyl-3-methyl-5-(2-oxo-6-phenyl-1,2-dihydroindol-3-ylidenemethyl)-1H-pyrrole-2-carboxylic Acid (3-pyrrolidin-1-ylpropyl)amide], with above 100 µM.
For `CC(=O)c1c(/C=C2\C(=O)Nc3ccc(Br)cc32)[nH]c(C(=O)NCCCN2CCOCC2)c1C` [Example 31, 4-Acetyl-5-(5-bromo-2-oxo-1,2-dihydroindol-3-ylidenemethyl)-3-methyl-1H-pyrrole-2-carboxylic Acid (3-morpholin-4-ylpropyl)amide], the results for the IC50 (on GST-Flk1; in assay [1]) were above 50 µM and above 100 µM, respectively.
As for `COc1ccccc1-c1ccc2c(c1)NC(=O)/C2=C\c1[nH]c(C)c(C(=O)NCCN2CCCC2)c1-c1ccccc1` [Example 43, 5-[6-(2-Methoxyphenyl)-2-oxo-1,2-dihydroindol-3-ylidenemethyl]-2-methyl-4-phenyl-1H-pyrrole-3-carboxylic Acid (2-pyrrolidin-1-ylethyl)amide], the IC50 at EGFR (A431 cell lysate) is above 100 µM.
`COc1ccccc1-c1ccc2c(c1)NC(=O)/C2=C\c1[nH]c(C)c(C(=O)NCCN(C)C)c1-c1ccccc1` [Example 45, 5-[6-(2-Methoxyphenyl)-2-oxo-1,2-dihydroindol-3-ylidenemethyl]-2-methyl-4-phenyl-1H-pyrrole-3-carboxylic Acid (2-dimethylaminoethyl)amide]: the IC50 (in assay [1]; on EGFR (A431 cell lysate); in assay [2]) was above 100 µM each time.
For `CCN(CC)CCCNC(=O)c1c(C)[nH]c(/C=C2\C(=O)Nc3ccc(Br)cc32)c1-c1ccccc1` [Example 47, 5-(5-Bromo-2-oxo-1,2-dihydroindol-3-ylidenemethyl)-2-methyl-4-phenyl-1H-pyrrole-3-carboxylic Acid (3-diethylaminopropyl)amide], the IC50 at human cdk2/cyclin A was above 20 µM.
As to `Cc1[nH]c(/C=C2\C(=O)Nc3cc(-c4ccccc4)ccc32)c(C)c1C(=O)NCCN(C)C` [Example 49, 2,4-Dimethyl-5-(2-oxo-6-phenyl-1,2-dihydroindol-3-ylidenemethyl)-1H-pyrrole-3-carboxylic Acid (2-dimethylaminoethyl)amide], the results for the IC50 (in assay [1]; on EGFR (A431 cell lysate); in assay [2]) were below 0.78 µM, above 100 µM and above 100 µM, respectively.
`Cc1[nH]c(/C=C2\C(=O)Nc3ccc(Cl)cc32)c(C)c1C(=O)NCCN(C)C` [Example 50, 5-(5-Chloro-2-oxo-1,2-dihydroindol-3-ylidenemethyl)-2,4-dimethyl-1H-pyrrole-3-carboxylic Acid (2-dimethylamino-ethyl)amide]: the IC50 in assay [1] was below 0.78 µM; on EGFR (A431 cell lysate), above 100 µM; in assay [2] it was above 100 µM.
Turning to `COc1ccccc1-c1ccc2c(c1)NC(=O)/C2=C\c1[nH]c(C)c(C(=O)NCCN(C)C)c1C` [Example 54, 5-[6-(2-Methoxyphenyl)-2-oxo-1,2-dihydroindol-3-ylidenemethyl]-2,4-dimethyl-1H-pyrrole-3-carboxylic Acid (2-dimethylaminoethyl)amide], in assay [1], the IC50 was below 0.78 µM.
On to `CCN(CC)CCCNC(=O)c1c(C)[nH]c(/C=C2\C(=O)Nc3cc(-c4ccccc4)ccc32)c1C` [Example 68, 2,4-Dimethyl-5-(2-oxo-6-phenyl-1,2-dihydroindol-3-ylidenemethyl)-1H-pyrrole-3-carboxylic Acid (3-diethylaminopropyl)amide], for which the IC50 on EGFR (A431 cell lysate) was above 100 µM.
Regarding `CCN(CC)CCCNC(=O)c1c(C)[nH]c(/C=C2\C(=O)Nc3cccc(C(=O)Nc4ccc(OC)c(Cl)c4)c32)c1C` [Example 69, 3-[4-(3-Diethylaminopropylcarbamoyl)-3,5-dimethyl-1H-pyrrol-2-ylmethylene]-2-oxo-2,3-dihydro-1H-indole-4-carboxylic Acid (3-chloro-4-methoxyphenyl)amide], the IC50 (at EGFR (A431 cell lysate); in assay [2]) was above 100 µM each time.
Take `CCN(CC)CCNC(=O)c1c(C(C)C)[nH]c(/C=C2\C(=O)Nc3ccc(Br)cc32)c1C(C)C` [Example 71]: on EGFR (A431 cell lysate), the IC50 is above 100 µM.
Take `Cc1[nH]c(/C=C2\C(=O)Nc3ccc(S(=O)(=O)N(C)C)cc32)c(C)c1C(=O)NCCN1CCCC1` [Example 82, 5-(5-Dimethylsulfamoyl-2-oxo-1,2-dihydroindol-3-ylidenemethyl)-2,4-dimethyl-1H-pyrrole-3-carboxylic Acid (2-pyrrolidin-1-ylethyl)amide]: the IC50 (at EGFR (A431 cell lysate); in assay [2]) was above 100 µM in each case.
With `Cc1[nH]c(/C=C2\C(=O)Nc3ccc(S(=O)(=O)Nc4ccccc4)cc32)c(C)c1C(=O)N1CCN(C)CC1` [Example 86, 3-[3,5-Dimethyl-4-(4-methylpiperazine-1-carbonyl)-1H-pyrrol-2-ylmethylene]-2-oxo-2,3-dihydro-1H-indole-5-sulfonic Acid Phenylamide], the IC50 in assay [2] is above 100 µM.
On to `CCN(CC)CCNC(=O)c1c(C)[nH]c(/C=C2\C(=O)Nc3ccc(S(=O)(=O)N(C)C)cc32)c1C` [Example 87, 5-(5-Dimethylsulfamoyl-2-oxo-1,2-dihydroindol-3-ylidenemethyl)-2,4-dimethyl-1H-pyrrole-3-carboxylic Acid (2-diethylaminoethyl)amide], for which the IC50 at EGFR (A431 cell lysate) was above 100 µM.
As for `CNS(=O)(=O)c1ccc2c(c1)/C(=C/c1[nH]cc(C(=O)O)c1C)C(=O)N2` [Example 115, 4-Methyl-5-(5-methylsulfamoyl-2-oxo-1,2-dihydro-indol-3-ylidenemethyl)-1H-pyrrole-3-carboxylic Acid], the IC50 against GST-Flk1 is 7.3 µM; in assay [1], 7.48 µM; in assay [2], above 100 µM; at human cdk2/cyclin A, 0.006 µM.
In the same order, the values of `CCOC(=O)CNC(=O)c1c[nH]c(/C=C2\C(=O)Nc3ccc(S(=O)(=O)NC)c(C)c32)c1C` [Example 116, {[4-Methyl-5-(4-methyl-5-methylsulfamoyl-2-oxo-1,2-dihydro-indol-3-ylidenemethyl)-1H-pyrrole-3-carbonyl]-amino}-acetic Acid Ethyl Ester] are above 20 µM, above 100 µM, above 100 µM and below 0.0005 µM.
With `CCOC(=O)CNC(=O)c1c[nH]c(/C=C2\C(=O)Nc3ccc(S(=O)(=O)NC)cc32)c1C` [Example 117, {[4-Methyl-5-(5-methylsulfamoyl-2-oxo-1,2-dihydro-indol-3-ylidenemethyl)-1H-pyrrole-3-carbonyl]-amino}-acetic Acid Ethyl Ester], the IC50 (on EGFR (A431 cell lysate); in assay [2]) was above 100 µM each time.
Regarding `CNS(=O)(=O)c1ccc2c(c1)/C(=C/c1[nH]cc(C(=O)NCC(=O)O)c1C)C(=O)N2` [Example 118, {[4-Methyl-5-(5-methylsulfamoyl-2-oxo-1,2-dihydro-indol-3-ylidenemethyl)-1H-pyrrole-3-carbonyl]-amino}-acetic Acid], the IC50 at GST-Flk1 was 1.93 µM; in assay [1] it was 1.2 µM; in assay [2] it was above 100 µM; at human cdk2/cyclin A, 0.002 µM.

(Values after patent publication US7320996B2, “Indolinone protein kinase inhibitors and cyclooxygenase inhibitors for use in combination therapy for the treatment of cancer” (Sugen, Inc, priority 2001, dated 2008).)
